Counter-ions that a name gives are not always drawn.
Molecular target: SARS-CoV-2 Mac1 (Severe acute respiratory syndrome coronavirus 2, UniProt P0DTD1)
Assay: biochemical
Settings: for inhibition at 100 µM: read-out: %inhibition; for %inhibition: 100 µM, inhibitor

SMILES	inhibition at 100 µM	%inhibition
NC(=O)Cc1cccc(C(=O)c2ccccc2)c1N [Nepafenac]	0%	–
CCOc1cc2ncc(C#N)c(Nc3ccc(OCc4ccccn4)c(Cl)c3)c2cc1NC(=O)/C=C/CN(C)C [Neratinib (HKI-272)]	4.82%	–
CCCCCOc1ccccc1/C(=C\SC)n1ccnc1 [Neticonazole Hydrochloride]	0%	–
CCN[C@@H]1C[C@H](N)[C@@H](O[C@H]2OC(CN)=CC[C@H]2N)[C@H](O)[C@H]1O[C@H]1OC[C@](C)(O)[C@H](NC)[C@H]1O [Netilmicin Sulfate]	0%	–
Cc1ccccc1-c1cc(N2CCN(C)CC2)ncc1N(C)C(=O)C(C)(C)c1cc(C(F)(F)F)cc(C(F)(F)F)c1 [Netupitant]	6.47%	–
Cc1ccnc2c1NC(=O)c1cccnc1N2C1CC1 [Nevirapine]	20.6%	–
O=C(CCNNC(=O)c1ccncc1)NCc1ccccc1 [Nialamide]	25%	–
COC(=O)C1=C(C)NC(C)=C(C(=O)OCCN(C)Cc2ccccc2)C1c1cccc([N+](=O)[O-])c1 (stereo not shown) [Nicardipine]	0%	–
O=C(NCCO[N+](=O)[O-])c1cccnc1 [Nicorandil]	15.7%	–
NC(=O)c1cccnc1 [Nicotinamide (Vitamin B3)]	16%	–
CN1CCC[C@H]1c1cccnc1 [Nicotine Ditartrate]	0%	–
O=C(O)c1cccnc1 [Nicotinic Acid]	28.8%	–
COC(=O)C1=C(C)NC(C)=C(C(=O)OC)C1c1ccccc1[N+](=O)[O-] [Nifedipine]	16%	–
Cc1c(NC(=O)c2cccnc2)c(=O)n(-c2ccccc2)n1C [Nifenazone]	3.55%	–
O=C(O)c1cccnc1Nc1cccc(C(F)(F)F)c1 [Niflumic acid]	11%	–
O=C(N/N=C/c1ccc([N+](=O)[O-])o1)c1ccc(O)cc1 [Nifuroxazide]	0.953%	–

SMILES	inhibition at 100 µM	%inhibition
CCN(CC)C(=O)c1cccnc1 [Nikethamide]	0%	–
Cc1cn(-c2cc(NC(=O)c3ccc(C)c(Nc4nccc(-c5cccnc5)n4)c3)cc(C(F)(F)F)c2)cn1 [Nilotinib (AMN-107)]	–	40.49%
Cc1cn(-c2cc(NC(=O)c3ccc(C)c(Nc4nccc(-c5cccnc5)n4)c3)cc(C(F)(F)F)c2)cn1 [Nilotinib hydrochloride]	–	3.764%
CC1(C)NC(=O)N(c2ccc([N+](=O)[O-])c(C(F)(F)F)c2)C1=O [Nilutamide]	3.89%	–
COC(=O)C1=C(C#N)NC(C)=C(C(=O)OC(C)C)C1c1cccc([N+](=O)[O-])c1 (stereo not shown) [Nilvadipine]	0%	–
CS(=O)(=O)Nc1ccc([N+](=O)[O-])cc1Oc1ccccc1 [Nimesulide]	0%	–
COCCOC(=O)C1=C(C)NC(C)=C(C(=O)OC(C)C)C1c1cccc([N+](=O)[O-])c1 (stereo not shown) [Nimodipine]	21.8%	–
Cc1ncc(CNC(=O)N(CCCl)N=O)c(N)n1 [Nimustine Hydrochloride]	0%	–
COC(=O)c1ccc2c(C(=Nc3ccc(N(C)C(=O)CN4CCN(C)CC4)cc3)c3ccccc3)c(O)[nH]c2c1 [Nintedanib (BIBF 1120)]	–	17.91%
COC(=O)c1ccc2c(C(=Nc3ccc(N(C)C(=O)CN4CCN(C)CC4)cc3)c3ccccc3)c(O)[nH]c2c1 [Nintedanib Ethanesulfonate Salt]	–	8.812%
NC(=O)c1cccc2cn(-c3ccc([C@@H]4CCCNC4)cc3)nc12 [Niraparib (MK-4827) tosylate]	–	14.33%
NC(=O)c1cccc2cn(-c3ccc([C@@H]4CCCNC4)cc3)nc12 [Niraparib (MK-4827)]	–	4.387%
COC(=O)C1=C(C)NC(C)=C(C(=O)OCC(C)C)C1c1ccccc1[N+](=O)[O-] (stereo not shown) [Nisoldipine]	16.9%	–
CC(=O)Oc1ccccc1C(=O)Nc1ncc([N+](=O)[O-])s1 [Nitazoxanide]	0%	–
O=C1CCCC(=O)C1C(=O)c1ccc(C(F)(F)F)cc1[N+](=O)[O-] [Nitisinone]	2.19%	–

Reference: article doi:[…]/2021.10.07.463234v2 (biorxiv, 2021)
